The values that follow come from patent US20050038248A1, “Chemotherapeutic agents” (priority 2001, published 2005).

Read-outs that look alike come from different tables or passages of the source.

What all share (assay type): cell-based
The test system of data set [1] is rat aorta ring. As to the kind of experiment: Rat aorta assay for angiogenesis inhibition (rat aorta ring model). The settings on record: for inhibition at 0.5 µg/mL: 0.5 μg/mL; for inhibition at 1 µg/mL: 1 μg/mL. An excerpt:
Rat Aorta Assay for Angiogenesis Inhibition
The rat aorta ring model based on that described by Nicosia and Ottinetti (Nicosia, R. F. et al. Lab. Investigation 63: 115, 1990; Nicosia, R. F. et al. Cell. Dev. Biol. 26: 119-128, 1990), was used throughout the assay.
The agarose was made up as a 1.5% solution in distilled water and brought to the boil to form a clear solution which was poured into sterile 9 cm petri dishes, covered and allowed to cool and set.
Maintaining sterile conditions, agarose rings were obtained by punching two concentric circles, with sterile10 and 17 mm hole punches, respectively, in the agarose gel. Using sterile forceps, the rings are removed and placed, three per well in each of the 6-well plates.
The MEM was prepared according to manufacturer's directions, but before filtering through a 0.22 μm filter, HEPES and L-glutamine were added to give 10 mM and 1 mM concentrations respectively with pH adjusted to 7.4. Eight hundred mL of this medium were filtered through a 0.2 μm filter along with the antibiotics (50 mg/L Gentamycin sulphate and 2.5 mg/L Amphotericin B) and 200 mL of FCS (to give 20%) to yield one litre of medium.
The aorta was removed from a 3-4 month male Copenhagen rat and transferred to a dissecting dish where it was cleaned and carefully stripped of the fibroadipose tissue surrounding it. Rings of 0.5 mm were cut, using a fresh scalpel blade, from the length of the aorta. These were kept under sterile conditions in a biohazard hood where they were washed 12 times with MEM.
Before transferring the aortic rings to the culture plate, the bottom of each agarose well was coated with 150 μL of clotting fibrinogen. Fibrinogen was made up as a 3 mg/mL solution in MEM, while thrombin made up in distilled water to give a concentration of 50 U/mL. The fibrinogen (1 mL) and the thrombin (20 μL) reacted within 30 sec to form a solid gel.
The aortic rings were transferred to the 6-well plates, with one ring placed in the center of each agarose well. Fresh fibrinogen/thrombin was made up as before and 150 μL was used to seal in each aortic ring. The gels were rested for approximately 2 hours before the medium was added.
[…] The compounds were made up as 6 mg/mL solution in water or DMSO. The test solutions were added to each well with the medium.
Six mL of MEM were carefully added to each of three wells to become the controls. MEM, along with the test compounds were added to the remaining wells and all were covered and transferred to the CO2 Incubator at 37° C., where they were kept for the next 14 days.
However, by the fifth day, there were noticeable changes in the tissue. Micro-vessels were seen and scored. We have based the scoring method on that used by Liekens et al. (Liekens, S., et al. Oncol. Res. 9: 173-181, 1997) in which 0 meant no vessels and 10 meant maximum vessels; the score is then converted into a percentage inhibition of vessel growth.

Data set [2] has as its system HUVEC. As to the kind of experiment: Growth inhibition assay (crystal violet). As to conditions: HUVEC proliferation, 72 h. The procedure:
HUVEC (1.5×10^3) are plated in a 96-well plate in 100 μL of EBM-2 (Clonetic # CC3162). After 24 h (day 0), the test compound (100 μL) is added to each well at twice the desired concentration (5-7 concentration levels) in EBM-2 medium. On day 0, one plate is stained with 0.5% crystal violet in 20% methanol for 10 minutes, rinsed with water, and air-dried. The remaining plates are incubated for 72 h at 37° C. After 72 h, plates are stained with 0.5% crystal violet in 20% methanol, rinsed with water and air-dried. The stain is eluted with 1:1 solution of ethanol:0.1M sodium citrate (including day 0 plate), and absorbance is measured at 540 nm with an ELISA reader (Dynatech Laboratories). Day 0 absorbance is subtracted from the 72 h plates and data is plotted as percentage of control proliferation (vehicle treated cells). IC50 (drug concentration causing 50% inhibition) is calculated from the plotted data.

Data set [3] deals with HeLa cervical adenocarcinoma (epithelial) cells. As to the kind of experiment: Cytotoxicity assay (WST-1). The settings on record: 100 μM test compound, 72 hours. Here is the method:
(§1) HeLa cervical adenocarcinoma (epithelial) cells were cultured in the presence of 100 μM of test compound for 72 hours and cell viability was measured using the WST-1 tetrazolium salt (cleaved to formazan by mitochondrial respiratory chain enzymes, which are only active in viable cells). The absorbance of the dye solution was measured at 450 nm. Controls included cells alone, 0.05% NP-40 plus cells (100% cytotoxicity control) and each of the compound vehicles alone, DMSO or water at the same final concentration in medium as the compound in test wells. % Cytotoxicity was calculated as follows: % cytotoxicity=100×(1-ODtest compound/ODcells alone).
For orientation: Tetrazolium assays rely on reduction of a dye to a coloured formazan, in cell work by metabolically active cells.

The subject of data set [4] is HUVEC. The experiment in a line: Cell migration assay (Boyden chamber). As to conditions: Homo sapiens, 5 h incubation. The procedure:
Migration is assessed using the 48-well Boyden chamber and 8 μm pore size collagen-coated (10 μg/mL rat tail collagen; Collaborative Laboratories) polycarbonate filters (Osmonics, Inc.). The bottom chamber wells receive 27-29 μL of DMEM medium alone (baseline) or medium containing chemo-attractant (bFGF, VEGF or Swiss 3T3 cell conditioned medium). The top chambers receive 45 μL of HUVEC cell suspension […] prepared in DMEM+1% BSA with or without test compound. After 5 h incubation at 37° C., the membrane is rinsed in PBS, fixed and stained in Diff-Quick solutions. The filter is placed on a glass slide with the migrated cells facing down and cells on top are removed using a Kimwipe. The testing is performed in 4-6 replicates and five fields are counted from each well. Negative unstimulated control values are subtracted from stimulated control and drug treated values and data is plotted as mean migrated cell±S.D. IC50 is calculated from the plotted data.

Data set [5] in a line: Cytotoxicity assay (WST-1). The settings on record: human, HeLa cervical adenocarcinoma (epithelial) cells, 100 μM test compound. The procedure:
as §1

The test system of data set [6] is HUVEC. As to the kind of experiment: Cord formation assay on matrigel. The settings on record: Homo sapiens, 24 h incubation. The procedure:
Matrigel (60 μL of 10 mg/mL) is placed in each well of an ice-cold 96-well plate. The plate is allowed to sit at room temperature for 15 minutes then incubated at 37° C. for 30 minutes to permit the matrigel to polymerize. In the mean time, HUVEC are prepared in EGM-2 (Clonetic # CC3162) at a concentration of 2×10^5 cells/mL. The test compound is prepared at twice the desired concentration (5 concentration levels) in the same medium. Cells (50 μL) and 2×drug […] is mixed and 200 μL of this suspension are placed in duplicate on the polymerized matrigel. After 24 h incubation, triplicate pictures are taken for each concentration using a Bioquant Image Analysis system. Drug effect (IC50) is assessed compared to untreated controls by measuring the length of cords formed and number of junctions.

[7] abbreviates: Rattus norvegicus, 120 h, 4 μg/mL, day 5, read-out: Growth Inhibition % (Day).
Where [8] appears, read: Rattus norvegicus, 120 h, day 5, read-out: Growth Inhibition % (Day).
[9] abbreviates: Rattus norvegicus, 120 h, 10 μg/mL, day 5, read-out: Growth Inhibition % (Day).
Where [10] appears, read: Rattus norvegicus, 288 h, day 12, read-out: Growth Inhibition % (Day).
[11] abbreviates: Rattus norvegicus, 288 h, 4 μg/mL, day 12, read-out: Growth Inhibition % (Day).
[12] abbreviates: Rattus norvegicus, 288 h, 10 μg/mL, day 12, read-out: Growth Inhibition % (Day).
Setting [13] is: Rattus norvegicus, 168 h, 10 μg/mL, day 7, read-out: Growth Inhibition % (Day).
The mark [14] stands for this setting: Rattus norvegicus, 168 h, day 7, read-out: Growth Inhibition % (Day).
[15] abbreviates: Rattus norvegicus, 168 h, 4 μg/mL, day 7, read-out: Growth Inhibition % (Day).

A word on the IC50: it is the concentration at which inhibition is half-maximal. A lower IC50 goes with higher potency. `CC(C)c1cccc(C(C)C)c1NC(=O)c1ccccc1S(=O)(=O)Nc1c(C(C)C)cccc1C(C)C` [Example 1, N-(2,6,-Diisopropylphenyl)-2-(2,6-diisopropylphenylsulfamoyl)-benzamide]: the “Growth Inhibition % (Day)” value is on record as 100 (7) % in data set [1] (4 μg/mL, day 7); 100 (14) % in data set [1] (4 μg/mL, day 14); 98 (7) % in data set [1] (20 μg/mL, day 7); 98 (14) % in data set [1] (20 μg/mL, day 14); 100 (7) % in data set [1] (50 μg/mL, day 7); 100 (14) % in data set [1] (50 μg/mL, day 14). This compound returned a 50% inhibitory concentration (IC50) in data set [2] of 2.4 ± 0.5 µM. Moreover, the “% Cytotoxicity” value in data set [3] stood at 94%.

What is called inhibition is the drop in the measured response relative to a control, in per cent. Take `O=C(Nc1ccccc1)c1ccccc1S(=O)(=O)Nc1ccccc1` [Example 2, N-Phenyl-2-phenylsulfamoylbenzamide]: the inhibition at 4 µg/mL in data set [1] (setting [7]) is 50%. The inhibition at 20 µg/mL in data set [1] (Rattus norvegicus, 120 h, 20 μg/mL, day 5, read-out: Growth Inhibition % (Day)) was determined as 90%. Moreover, the inhibition at 50 µg/mL in data set [1] (Rattus norvegicus, 120 h, 50 μg/mL, day 5, read-out: Growth Inhibition % (Day)) is 70%.

As for `COc1ccc(NS(=O)(=O)c2ccccc2NC(=O)c2ccncc2)cc1` [Example 3, N-[2-(4-Methoxyphenylsulfamoyl)-phenyl]-isonicotinamide], the figures for the inhibition at 0.5 µg/mL in data set [1] (setting [8]) and in data set [1] (setting [10]) were 100% and 60%, respectively. Moreover, the inhibition at 1 µg/mL in data set [1] (setting [8]) and in data set [1] (setting [10]) was 100% in each case. Further, the inhibition at 4 µg/mL in data set [1] (setting [7]) and in data set [1] (setting [11]) was 100% in each case. The inhibition at 10 µg/mL in data set [1] (setting [9]) and in data set [1] (setting [12]) was 100% throughout. The IC50 in data set [4] is 0.68 ± 0.17 µM; in data set [2] (Homo sapiens) it was 0.29 ± 0.22 µM; in data set [6], 0.48 ± 0.27 µM. The same compound displayed a cytotoxicity at 72 hours, 100 µM in data set [5] of 92%.

With `COc1ccc(NS(=O)(=O)c2ccccc2NC(=O)c2ccc([N+](=O)[O-])cc2)cc1` [Example 4, N-[2-(4-Methoxyphenylsulfamoyl)-phenyl]-4-nitrobenzamide], in data set [5], the cytotoxicity at 72 hours, 100 µM is 56%.

With `COc1ccc(NS(=O)(=O)c2ccccc2NC(=O)c2ccc(F)cc2)cc1` [Example 5, N-[2-(4-Methoxyphenylsulfamoyl)-phenyl]-4-fluorobenzamide], the values for the inhibition at 10 µg/mL in data set [1] (setting [9]) and in data set [1] (setting [12]) were 80% and 70%, respectively. In addition, the results for the half-inhibitory concentration (IC50) in data set [2] (Homo sapiens) and in data set [6] were 7.1 ± 2.7 µM and 36.1 ± 9.4 µM, respectively. In data set [5], this compound came in with a cytotoxicity at 72 hours, 100 µM of 91%.

Turning to `CC(C)c1cccc(C(C)C)c1NC(=O)c1ccccc1C(=O)Nc1c(C(C)C)cccc1C(C)C` [Example 6, N,N′-Bis-(2,6-diisopropylphenyl)-phthalamide], the inhibition at 10 µg/mL in data set [1] (setting [13]) was 10%.

As for `COc1ccc(S(=O)(=O)Nc2ccccc2C(=O)Nc2ccncc2)cc1` [Example 8, 2-(4-Methoxybenzenesulfonylamino)-N-pyridin-4-yl-benzamide], the inhibition at 10 µg/mL in data set [1] (setting [9]) came to 80%; in data set [1] (setting [12]) it was 30%. The compound also gave a cytotoxicity at 72 hours, 100 µM in data set [5] of 84%.

As to `COc1ccc(NS(=O)(=O)c2ccccc2S(=O)(=O)Nc2ccc(OC)cc2)cc1` [Example 12, Benzene-1,2-disulfonic acid bis-[(4-methoxyphenyl)-amide]], the inhibition at 10 µg/mL in data set [1] (setting [12]) amounted to 20%. The half-maximal inhibitory concentration (IC50) in data set [4] was 2.3 µM; in data set [2] (Homo sapiens), greater than 75 µM; in data set [6], greater than 50 µM.

For `COc1ccc(NS(=O)(=O)c2ccccc2NS(=O)(=O)c2cccs2)cc1` [Example 13, Thiophene-2-sulfonic acid [2-(4-methoxyphenylsulfamoyl)-phenyl]-amide], the inhibition at 0.5 µg/mL in data set [1] (setting [14]) and in data set [1] (setting [10]) was 90% each time. Besides, the inhibition at 1 µg/mL in data set [1] (setting [14]) and in data set [1] (setting [10]) was 100% in each case. Moreover, the inhibition at 4 µg/mL in data set [1] (setting [15]) and in data set [1] (setting [11]) was 100% throughout. The inhibition at 10 µg/mL in data set [1] (setting [13]) and in data set [1] (setting [12]) was 100% throughout. Further, the IC50 was 0.62 ± 0.25 µM in data set [4], 0.28 ± 0.22 µM in data set [2] (Homo sapiens) and 0.41 ± 0.03 µM in data set [6].

Turning to `COc1ccc(N(Cc2ccccc2)S(=O)(=O)c2ccccc2C(=O)Nc2ccncc2)cc1` [Example 15, 2-[Benzyl-(4-methoxyphenyl)-sulfamoyl]-N-pyridin-4-yl-benzamide], in data set [1] (setting [15]), the inhibition at 4 µg/mL was 90%.

Turning to `COc1ccc(NS(=O)(=O)c2ccccc2C(=O)Nc2ccncc2)cc1` [Example 16], the “Growth Inhibition % (Day)” value in data set [1] (10 μg/mL, day 7) was 70 (7) %; in data set [1] (10 μg/mL, day 12), 10 (12) %.
